From patent publication US20240034743A9, “TRICYCLIC COMPOUNDS AS EGFR INHIBITORS” (QILU PHARMACEUTICAL CO., LTD., priority 2020, published 2024)
pIC50: −log10 of the molar value. Marks after values point to notes of the source that are not given here.

Legend:
[1] = molecular target: EGFR WT (wild type EGFR) (Homo sapiens (Human), UniProt P00533); assay: In vitro enzymatic TR-FRET (HTRF KinEASE-TK) kinase assay, EGFR WT; type: biochemical; settings: kinase activity, TR-FRET; read-out: EGFR (WT) IC50
Summary of the method: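 Recombinant enzyme preincubated with compound 10 min at room temperature in kinase buffer with 5 mM MgCl2, 1 mM MnCl2, 1 mM DTT. Biotinylated TK substrate plus ATP then added for 40 min. HTRF detection (Sa-XL665, Cryptate antibody) for 1 h; IC50 from 665/615 nm ratio.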

[2] = molecular target: EGFR L858R/T790M/C797S (Homo sapiens (Human), UniProt P00533, C797S/L858R/T790M); assay: In vitro enzymatic TR-FRET (HTRF KinEASE-TK) kinase assay, EGFR L858R/T790M/C797S; type: biochemical; settings: kinase activity
Procedure: (I) In Vitro Enzymatic Experiment for EGFR WT and EGFR L858R/T790M/C797S
In the assay, the inhibition effect of the compound on the kinase activity of EGFR WT (wild type EGFR) and EGFR L858R/T790M/C797S was tested by adopting a time-resolved fluorescence resonance energy transfer (TR-FRET) method, and half maximal inhibitory concentration IC50 of the compound on the kinase activity of EGFR was obtained.
EGFR recombinase and EGFR L858R/T790M/C797S recombinase, purchased from Signalchem.
HTRF KinEASE-TK kit, purchased from Cisbio.
DTT, MnCl2, and MgCl2, purchased from Sigma.
ATP, purchased from Promega.
Brigatinib, purchased from Selleck.
1) 1× working solution was prepared: 5 mM MgCl2; 1 mM DTT; 1 mM MnCl2 and 1× kinase buffer (in kit).
2) […] of gradiently-diluted compound was transferred to a 384-well plate using Echo 550 (Labcyte).
3) 5 μL of 2× EGFR WT or EGFR L858R/T790M/C797S recombinase solution was added to the 384-well plate, and the plate was incubated at room temperature for 10 min.
4) 5 μL of 2× TK-substrate-biotin substrate solution (containing ATP) was added to the 384-well plate, and the plate was incubated at room temperature for 40 min.
5) 5 μL of assay solution containing Sa-XL 665 HTRF and 5 μL of TK-antibody-Cryptatewas were added to the plate, and the plate was incubated at room temperature for 1 h.
6) The fluorescence signal values at 615 nm and 665 nm were measured for each well using an Envision microplate reader (PerkinElmer).
7) The ratio of fluorescence signal values at 665 nm and 615 nm was calculated for each well.
8) Data analysis was performed using GraphPad Prism software to give the IC50 for compounds.

[3] = tested on: A431 cells (EGFR WT); assay: A431 cell proliferation inhibition assay (CellTiter-Glo); type: cell-based; settings: Homo sapiens, A-431; cell proliferation, 72 h, CellTiter-Glo; read-out: A431 EGFR WT IC50
Summary of the method: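 Seeded cells grown 24 h, then exposed 72 h (37° C, 5% CO2) to graded compound dilutions at 0.1% DMSO final. Viability read by CellTiter-Glo luminescence after 30 min at room temperature; IC50 fitted from the dose curve.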

[4] = tested on: Ba/F3_Del19/T790M/C797S cells; assay: Ba/F3_Del19/T790M/C797S cell proliferation inhibition assay (CellTiter-Glo); type: cell-based; settings: Mus musculus, BaF3; cell proliferation, 72 h, CellTiter-Glo; read-out: Ba/F3 (Del19/T790M/C797S) IC50
Summary of the method: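 Ba/F3 cells carrying EGFR Del19/T790M/C797S were seeded at 700 cells/well and exposed to serially diluted compound (0.1% DMSO final) for 72 h at 37° C. Viability was read by CellTiter-Glo luminescence to give IC50.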

[5] = tested on: Ba/F3_L858R/T790M/C797S cells; assay: Ba/F3_L858R/T790M/C797S cell proliferation inhibition assay (CellTiter-Glo); type: cell-based; settings: Mus musculus, BaF3; cell proliferation, 72 h, CellTiter-Glo; read-out: Ba/F3 (L858R/T790M/C797S) IC50
Summary of the method: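 Ba/F3 cells engineered to carry EGFR L858R/T790M/C797S, seeded at 700 cells/well, exposed to serially diluted compound (0.1% DMSO final) for 72 h at 37 °C, 5% CO2. Viability read by CellTiter-Glo luminescence after 30 min at room temperature; IC50 from dose-response fit.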

[6] = tested on: PC9 (Del19/T790M/C797S) cells; assay: In vivo efficacy study, PC9 (Del19/T790M/C797S) xenograft; design: species or system BALB/c-nu mice; settings: 21 consecutive days; for Tumor volume (mm^3): mean ± SEM; for Tolerability in mice (in words): po
Procedure: (III) In Vivo Efficacy Study Experiment
The anti-tumor activity and toxic and side effects of compound 53 and compound 27 administered orally for 21 consecutive days on PC9 (Del19/T790M/C797S) were evaluated.
SPF-grade and female BALB/c-nu mice, purchased from Beijing Vital River Laboratory Animal Technology Co., Ltd.
PC9 (Del19/T790M/C797S) cells, self-constructed by Qilu Pharmaceutical Co., Ltd.
PC9 (Del19/T790M/C797S) cells were cultured in RPMI 1640 medium containing 10% FBS at 37° C. in a 5% carbon dioxide incubator; and the cells in exponential growth phase were collected for inoculation.
Under sterile conditions, a cell suspension of in vitro cultured PC9 (Del19/T790M/C797S) was taken, centrifuged to adjust the cell concentration to 3×10^7 cells/mL, and inoculated in mice at the right side armpit (0.1 mL/mouse), and the day of inoculation was defined as day 0.
3.3 Tumor Grouping, Administration and Measurement
a. When the mean tumor volume was about 150 mm^3, 35 mice with moderate tumor volume were selected for enrollment and randomized into 5 groups according to tumor volume: G1: vehicle control group, G2: compound 53 (15 mg/kg), G3: compound 53 (60 mg/kg), G4: compound 27 (15 mg/kg) and G5: compound 27 (35 mg/kg), 7 mice/group.
b. The animals were grouped and then started to be administrated, and the volume for oral administration (po) was 10 mL/kg; the weighing was performed once daily with consecutively 21-day administration; the tumor diameters were measured 2 times a week.
c. Tumor volume (TV): tumor volumes were measured 2 times a week to observe tumor mass volume changes and growth rate. Tumor volume V=1/2×a×b^2, where a and b represent tumor long diameter and short diameter, respectively. The growth inhibition effect of the compounds on tumor tissues is evaluated by using a tumor growth inhibition TGI (%). TGI (%)=[1−(average tumor volume of a certain administration group—average tumor volume at the day of grouping in the administration group)/(average tumor volume of negative control group—average tumor volume on the day of grouping in the negative control group)]×100%. The data of the administration group and the negative control group were obtained on the same day.
d. The mice's living status, including appearance signs, general behavioral activities, mental status, food consumption, respiratory status, fecal and urinary traits, injection site conditions and other toxic manifestations, was closely observed during the course of the experiment.
e. After the endpoint was reached, the mice were euthanized, and animal carcasses were frozen and stored in a freezer and transferred to qualified medical waste treatment organization for disposal.

Sequence of EGFR L858R/T790M/C797S (P00533 25-1210 T790M/C797S/L858R): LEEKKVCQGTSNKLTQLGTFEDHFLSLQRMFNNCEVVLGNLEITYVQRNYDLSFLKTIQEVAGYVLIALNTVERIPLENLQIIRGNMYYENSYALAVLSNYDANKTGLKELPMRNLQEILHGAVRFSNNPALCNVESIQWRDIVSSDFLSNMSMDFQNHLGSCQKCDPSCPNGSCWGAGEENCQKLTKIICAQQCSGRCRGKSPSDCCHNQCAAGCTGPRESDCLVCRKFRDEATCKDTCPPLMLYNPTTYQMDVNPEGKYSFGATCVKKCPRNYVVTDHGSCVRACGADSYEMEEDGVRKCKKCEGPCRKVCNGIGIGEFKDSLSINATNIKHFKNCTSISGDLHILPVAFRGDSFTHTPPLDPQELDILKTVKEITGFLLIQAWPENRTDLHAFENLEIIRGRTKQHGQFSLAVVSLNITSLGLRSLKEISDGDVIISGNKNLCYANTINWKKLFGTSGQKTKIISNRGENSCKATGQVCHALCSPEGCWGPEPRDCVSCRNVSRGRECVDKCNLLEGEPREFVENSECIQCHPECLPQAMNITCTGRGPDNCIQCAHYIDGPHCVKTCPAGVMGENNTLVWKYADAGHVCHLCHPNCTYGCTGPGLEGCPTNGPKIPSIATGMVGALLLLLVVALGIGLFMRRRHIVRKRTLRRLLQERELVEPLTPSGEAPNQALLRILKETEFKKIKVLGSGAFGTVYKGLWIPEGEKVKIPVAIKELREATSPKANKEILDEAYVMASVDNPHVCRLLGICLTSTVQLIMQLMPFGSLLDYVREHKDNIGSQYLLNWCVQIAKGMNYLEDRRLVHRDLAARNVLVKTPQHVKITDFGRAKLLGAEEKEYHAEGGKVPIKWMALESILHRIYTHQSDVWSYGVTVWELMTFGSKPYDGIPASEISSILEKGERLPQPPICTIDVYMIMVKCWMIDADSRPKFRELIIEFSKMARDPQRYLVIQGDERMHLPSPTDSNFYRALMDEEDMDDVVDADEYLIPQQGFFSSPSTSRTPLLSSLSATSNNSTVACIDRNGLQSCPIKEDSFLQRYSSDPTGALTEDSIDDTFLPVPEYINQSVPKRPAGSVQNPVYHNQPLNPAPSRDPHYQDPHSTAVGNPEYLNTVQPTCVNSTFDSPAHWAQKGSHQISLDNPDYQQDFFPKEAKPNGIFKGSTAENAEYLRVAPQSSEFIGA
Sequence of EGFR WT (wild type EGFR) (P00533 25-1210): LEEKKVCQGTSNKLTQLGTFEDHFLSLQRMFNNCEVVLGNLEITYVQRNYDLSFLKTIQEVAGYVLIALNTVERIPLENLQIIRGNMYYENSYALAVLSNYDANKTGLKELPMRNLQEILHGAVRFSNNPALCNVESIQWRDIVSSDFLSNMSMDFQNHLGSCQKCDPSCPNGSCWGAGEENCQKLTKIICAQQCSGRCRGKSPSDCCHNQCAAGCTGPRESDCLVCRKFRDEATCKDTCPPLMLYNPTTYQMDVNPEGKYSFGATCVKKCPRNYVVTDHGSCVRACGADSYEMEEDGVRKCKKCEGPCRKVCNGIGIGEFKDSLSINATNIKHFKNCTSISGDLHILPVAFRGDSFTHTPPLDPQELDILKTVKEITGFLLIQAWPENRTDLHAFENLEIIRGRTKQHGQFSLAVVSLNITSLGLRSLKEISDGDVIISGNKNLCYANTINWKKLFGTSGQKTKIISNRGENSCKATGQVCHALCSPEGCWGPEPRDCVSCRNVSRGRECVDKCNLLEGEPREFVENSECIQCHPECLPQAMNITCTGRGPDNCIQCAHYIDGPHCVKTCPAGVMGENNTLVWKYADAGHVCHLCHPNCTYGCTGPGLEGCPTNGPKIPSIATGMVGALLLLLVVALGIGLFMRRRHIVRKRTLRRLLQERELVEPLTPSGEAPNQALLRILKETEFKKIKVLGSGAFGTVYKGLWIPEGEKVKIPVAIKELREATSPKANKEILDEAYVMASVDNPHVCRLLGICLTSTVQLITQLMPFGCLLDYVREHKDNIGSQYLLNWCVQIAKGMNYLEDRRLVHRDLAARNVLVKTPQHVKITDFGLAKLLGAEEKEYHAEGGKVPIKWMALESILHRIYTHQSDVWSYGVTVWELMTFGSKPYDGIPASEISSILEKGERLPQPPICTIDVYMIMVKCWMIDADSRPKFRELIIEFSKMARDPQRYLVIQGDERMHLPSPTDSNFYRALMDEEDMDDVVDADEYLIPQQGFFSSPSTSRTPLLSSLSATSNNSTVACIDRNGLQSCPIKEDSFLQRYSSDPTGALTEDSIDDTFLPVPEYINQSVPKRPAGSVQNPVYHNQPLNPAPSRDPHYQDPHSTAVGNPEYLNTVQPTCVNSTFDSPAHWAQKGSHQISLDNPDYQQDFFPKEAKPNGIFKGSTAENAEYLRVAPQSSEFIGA

Structure (SMILES) | pIC50 [1] | pIC50 [2] | pIC50 [3] | pIC50 [4] | pIC50 [5] | Body weight change (%) ([6]; 15 mg/kg po) | TGI (%) ([6]; 15 mg/kg po) | Tumor volume (mm^3) ([6]; 15 mg/kg po) | Body weight change (%) ([6]; 35 mg/kg po) | TGI (%) ([6]; 35 mg/kg po) | Tumor volume (mm^3) ([6]; 35 mg/kg po, P < 0.01 vs G1) | Tolerability in mice (in words) [6] | Body weight change (%) ([6]; 60 mg/kg po) | TGI (%) ([6]; 60 mg/kg po) | Tumor volume (mm^3) ([6]; 60 mg/kg po, P < 0.01 vs G1)
COc1cc2c(cc1Nc1ncc(Br)c(Nc3ccccc3P(C)(C)=O)n1)-c1cnn(C)c1CCN2C(C)C [Compound 27] | 8.00 to 9.00 | > 9.00 | 6.00 to 7.00 | > 8.00 | > 8.00 | 7.0 | 50.6 | 617.6 ± 110.7 | −1.7 | 88.1 | 253.0 ± 58.5** mm^3 | well tolerated |  |  | 
COc1cc2c(cc1Nc1ncc(Br)c(Nc3ccc4nccnc4c3NS(C)(=O)=O)n1)-c1cnn(C)c1CCN2C(C)C [Compound 53] | > 9.00 | > 9.00 | 6.00 to 7.00 | > 8.00 | > 8.00 | 0 | 55.9 | 565.8 ± 82.0 |  |  |  | well tolerated | 6.8 | 102.0 | 117.0 ± 16.1** mm^3
